Test results: patent publication US20250032400A1, “PERSONAL CARE COMPOSITION” (Conopco, Inc., d/b/a UNILEVER, priority 2021, published 2025)

Legend:
[1] = tested on: hyaluronan synthase 3 (HAS3); assay: HAS3 gene expression by RT-PCR in normal human epidermal keratinocytes incubated with actives; type: cell-based; conditions: NHEK, 24 hours, 0.05 wt % of LCC in medium
Method: (§1) The normal human epidermal keratinocytes (NHEK) (Biocell, Xi'an, China) were incubated in medium together with or without actives for 24 hours. After incubation, the total RNA for each NHEK was extracted using RNAiso Plus (TaKaRa, Cat: 9108; Cat: RR036) according to manufacturer's protocol.
(§2) The extracted RNA was quantified using Nanodrop spectrometer (Thermo Fisher Scientific, Waltham, MA, US) and reverse transcribed to generate the template cDNA using the PrimeScript II 1st Strand cDNA synthesis kit according to manufacturer's protocol. Amplification of the gene encoding the hyaluronan synthase 3 (HAS3) and CD44 was performed with RT-PCR reagent (SYBR® Premix Ex Taq™) on the ABI Vii 7 Real-Time PCR Systems (Applied Biosystems, Thermo fisher scientific, Carlsbad, CA, USA). The beta-actin gene was selected as the housekeeping gene and all data on relative expression of the target genes was normalized to beta-actin. The fold changes in expression were calculated relative to the blank control (medium having no active).

CD44 = CD44 gene expression by RT-PCR in normal human epidermal keratinocytes incubated with actives; type: cell-based; conditions: NHEK, 24 hours, 0.05 wt % of LCC in medium
Method: as §1, §2

Substance: Lysine carboxymethyl cysteinate [LCC]
- HAS3 expression (fold change relative to blank control, normalized to beta-actin) [1]: 0.84
- CD44 expression (fold change relative to blank control, normalized to beta-actin) (CD44): 1.06
